Test results from patent publication US12612408B2, “Pyrazolone-fused pyrimidine compound, preparation method for same and applications thereof” (SHANGHAI PHARMACEUTICALS HOLDING CO., LTD., priority 2019, dated 2026).
Read-outs that look alike come from different tables or passages of the source.

What was measured:
WEE1 kinase = molecular target: T1, WEE1 kinase (Homo sapiens, UniProt P30291); assay: Inhibitory effect of compound on WEE1 kinase in vitro (ELISA); type: biochemical; details: ATP concentration of Km
T1 construct: purchased CarnaBiosciences, Inc. 05-177
Description: The tested compounds were screened on WEE1 kinase with ATP concentration of Km by ELISA. Compounds were screened on WEE1 kinase to evaluate the kinase inhibitory activity of the tested compounds. In the detection process, the initial concentration of the tested compounds was all selected as 100 nM, and each compound was selected with 6 gradient dilution concentrations, the gradient dilution ratio was 4-fold, and two replicate wells were detected for each concentration, MK1775 was used as the standard control.
WEE1, purchased from CarnaBiosciences, Inc., Item No. 05-177; dimethyl sulfoxide, purchased from Sigma-Aldrich, Item No. D8418; ATP, purchased from Sigma-Aldrich, Item No. A7699; DTT solution, purchased from Sigma-Aldrich, Item No. 43816; protein tyrosine kinase (PTK) substrate (poly-Glu-Tyr), purchased from Sigma-Aldrich, Item No. P4476; P-Tyr (PY99), purchased from Santa Cruz, Item No. sc-7020; Anti-mouse IgG HRP-linked Antibody, purchased from Santa Cruz, Item No. 7076S; TMB liquid Substrate System, purchased from Sigma-Aldrich, Item No. T0440; Costar Stripwell Microplate No Lid 1×8 Flat Bottom, Certified High Binding, purchased from Sigma-Aldrich, Item No. 42592; 96-well compound plate, purchased from Thermo Scientific, Item No. 267245.
• 1. Coating substrate: 1) An appropriate volume of substrate storage solution protein tyrosine kinase (PTK) substrate (poly-Glu-Tyr) was taken, diluted 10 times with PBS, and the concentration was diluted from […]. The mixture was added to a high adsorption 96-well plate at 125 μL per well. The plate was placed in an incubator at 37° C. for overnight coating. 2) After 24 hours, the 96-well plate was taken out, the liquid in the 96-well plate was poured out, cleaned with washing buffer for 3 times, and the incubator at 37° C. was inverted and dried for 2 hours. • 2. Compound preparation and transfer: 1) compound dilution: 10 mM of the test compound storage solution was taken, the compound in 96-well compound plate was diluted with DMSO in multiple steps to obtain the initial concentration of 100× compound as the first concentration, and then DMSO was used for 4-fold gradient dilution, for a total of 6 concentrations; after that, 2 μL of the gradient dilution solution was added to 48 μL of 1× reaction buffer respectively to prepare 4× compound; 2) 4× compounds were transferred: 10 μL of 4× compounds from the 96-well compound plate configured in the previous step were transferred into the dried high adsorption 96-well plate; 10 μL of the following liquids were added to the compound-free control wells and ATP-control wells: 2 μL of DMSO was added to 48 μL of 1× reaction buffer. • 3. Enzyme reaction stage: 1) WEE1 kinase and ATP were prepared into 2× enzyme solution and 4×ATP solution respectively with 1× reaction buffer. In this screening, the final concentration of WEE1 kinase was: 0.15 ng/μL and the final concentration of ATP was: […]; 2) 20 μL of enzyme solution of 2 was added to the high adsorption 96-well plate; 3) 10 μL of 4×ATP solution was added to the high adsorption 96-well plate and 10 μL of 1× reaction buffer was added to the ATP-control group; 4) the plate was placed in HERAEUS Multifuge X1R centrifuge at 2000 rpm for 20 s and then placed at room temperature and reacted for 60 min. • 4. Reaction termination stage: 1) the reaction mixture in the plate was poured out, 200 μL of washing buffer was added to each well, and washed for 5 times; the primary antibody P-Tyr (PY99) (dilution ratio 1:2000) was added, 100 μL per well, at room temperature for 30 min. 2) The primary antibody in the plate was poured out, 200 μL of washing buffer was added to each well, and washed for 5 times; the second antibody Anti-mouse IgG HRP-linked Antibody (dilution ratio 1:2000) was added, 100 μL per well, at room temperature for 30 min.

[1] = Bioavailability test in vivo in mice (pharmacokinetics, iv and intragastric); design: species or system ICR mice; details: for Cmax / MRT / Tmax / clearance / half-life / Vd / bioavailability: ICR, mouse, plasma; for bioavailability: po 10 mg/kg vs iv 3 mg/kg, read-out: F (absolute bioavailability)
Description: 404.6 μL of DMSO was added to the compound powder of the present disclosure until the compound was completely dissolved, and 50 mg/mL mother liquor was prepared in a clarified state.
The compound of the present disclosure: 24 μL of mother liquor was accurately measured, diluted to 4 mL according to the ratio of 0.9% normal saline:PEG400=8:2, the preparation concentration was 0.3 mg/mL, the solution was in a clarified state, and it was used as intravenous administration solution. In addition, 80 μL mother liquor was accurately measured, and 0.5% CMC-Na was added to 8 mL to grind it into a uniform suspension with a concentration of 0.5 mg/mL, which was used as intragastric administration solution.
Intravenous group: 24 ICR mice, 20±2 g, were given the intravenous administration solution of the compound of the present disclosure by intravenous injection, with the volume of 10 mL/kg, with the dose of 3 mg/kg, the blood was taken from the fundus venous plexus of mice, 2, 5, 15, 30, 60, 90, 120, 240, 360, 480, 600 and 1440 minutes before and after administration.
Intragastric group: 24 ICR mice, 20±2 g, were given the intragastric administration solution of the compound of the present disclosure by intragastric injection, with the volume of 20 mL/kg, with the dose of 10 mg/kg, the blood was taken from the fundus venous plexus of mice, 5, 15, 30, 60, 90, 120, 240, 360, 480, 600 and 1440 minutes before and after administration.
Blood sample was centrifuged at 8000 rpm for 5 min, and the plasma was stored in a centrifuge tube at −20° C. for later use.
300 μL of acetonitrile containing internal standard (Propranolol, 25 ng/mL) was added to 50 μL of plasma samples to precipitate protein, vortexed for 10 min, 6000 g, 4° C., centrifuged for 10 min; the supernatant before intravenous injection for 1 hour was taken, diluted 10 times with acetonitrile containing internal standard, the rest supernatant was kept undiluted, centrifuged for 10 min again at 6000 g, 4° C., and the supernatant was taken and then injected into a 96-well plate.
Dose; peak concentration: Cmax; peak time: Tmax; area under the drug-time curve from AUClast 0 to time t; half-life: T1/2; mean retention time: MRT; clearance: Cl; apparent distribution volume: Vz; steady-state distributed volume: Vss; absolute bioavailability: F.
The pharmacokinetic parameters of the compound in mice after intravenous injection or intragastric administration were shown in Table 4 and Table 5 below.

[2] = iv, 3 mg/kg, iv, 3 mg/kg, read-out: Vss
[3] = iv, 3 mg/kg, iv, 3 mg/kg, read-out: Vz

T1 sequence (P30291 whole entry): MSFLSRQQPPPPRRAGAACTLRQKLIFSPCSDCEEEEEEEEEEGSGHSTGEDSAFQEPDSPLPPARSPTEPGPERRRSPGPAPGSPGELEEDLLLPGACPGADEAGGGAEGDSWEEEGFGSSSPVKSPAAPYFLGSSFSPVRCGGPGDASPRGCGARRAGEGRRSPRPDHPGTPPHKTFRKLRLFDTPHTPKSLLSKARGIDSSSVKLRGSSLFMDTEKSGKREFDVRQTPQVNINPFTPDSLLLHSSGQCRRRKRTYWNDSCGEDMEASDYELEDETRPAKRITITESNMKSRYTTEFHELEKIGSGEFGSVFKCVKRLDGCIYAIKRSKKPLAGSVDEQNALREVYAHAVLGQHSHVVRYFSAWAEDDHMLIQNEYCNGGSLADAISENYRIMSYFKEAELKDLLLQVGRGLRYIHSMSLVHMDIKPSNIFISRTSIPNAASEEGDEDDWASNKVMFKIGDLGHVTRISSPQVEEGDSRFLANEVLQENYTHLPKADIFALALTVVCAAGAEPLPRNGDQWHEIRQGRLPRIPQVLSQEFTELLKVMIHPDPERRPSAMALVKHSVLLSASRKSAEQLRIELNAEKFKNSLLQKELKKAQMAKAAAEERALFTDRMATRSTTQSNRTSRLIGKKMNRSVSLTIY

C=CCn1c(=O)c2cnc(Nc3ccc(C4CCC(N(C)C)CC4)cc3)nc2n1-c1cccc(C(C)(C)O)n1 (single isomer, unassigned) [Compound I-1-1]
IC50 (WEE1 kinase): 1.9 nM
Cmax ([1]; iv, 3 mg/kg): 701 ± 142 ng/mL
MRT ([1]; iv, 3 mg/kg): 1.75 ± 0.46 h
Tmax ([1]; iv, 3 mg/kg): 0.03 h
clearance ([1]; iv, 3 mg/kg): 129 mL/min/kg
half-life ([1]; iv, 3 mg/kg): 4.31 ± 1.51 h
Vd [1, 2]: 13.6 ± 3.95 L/kg
Vd [1, 3]: 48.5 ± 18.4 L/kg
bioavailability [1]: 42.6%
Cmax ([1]; po (intragastric), 10 mg/kg): 245 ± 220 ng/mL
MRT ([1]; po (intragastric), 10 mg/kg): 4.33 ± 9.02 h
Tmax ([1]; po (intragastric), 10 mg/kg): 2.5 ± 1.32 h
half-life ([1]; po (intragastric), 10 mg/kg): 3.1 ± 9.02 h
AUClast ([1]; iv, 3 mg/kg): 372.5 ± 24.38 (h) (ng/mL)
AUClast ([1]; po (intragastric), 10 mg/kg): 528.6 ± 331.1 (h) (ng/mL)

C=CCn1c(=O)c2cnc(Nc3ccc(C4CCC(N5CCOCC5)CC4)cc3)nc2n1-c1cccc(C(C)(C)O)n1 (stereo not shown) [Compound I-2]
IC50 (WEE1 kinase): 2.57 nM

C=CCn1c(=O)c2cnc(Nc3ccc(C4CCC(C(=O)O)CC4)cc3)nc2n1-c1cccc(C(C)(C)O)n1 (stereo not shown) [Compound I-5, 4-(4-((2-allyl-1-(6-(2-hydroxypropan-2-yl)pyridin-2-yl)-3-oxo-2,3-dihydro-1H-pyrazolo[3,4-d]pyrimidin-6-yl)amino)phenyl)cyclohexane-1-carboxylic acid]
IC50 (WEE1 kinase): 7.15 nM

C=CCn1c(=O)c2cnc(Nc3ccc(C4CCC(C(=O)N(C)C)CC4)cc3)nc2n1-c1cccc(C(C)(C)O)n1 (stereo not shown) [Compound I-6]
IC50 (WEE1 kinase): 6.76 nM

C=CCn1c(=O)c2cnc(Nc3ccc(C4CCC(C(=O)N5CCC5)CC4)cc3)nc2n1-c1cccc(C(C)(C)O)n1 (stereo not shown) [Compound I-7]
IC50 (WEE1 kinase): 6.53 nM

C=CCn1c(=O)c2cnc(Nc3ccc(C4CCC(N5CCC5)CC4)cc3)nc2n1-c1cccc(C(C)(C)O)n1 (stereo not shown) [Compound I-8]
IC50 (WEE1 kinase): 1.52 nM
Cmax ([1]; iv, 3 mg/kg): 644 ± 132 ng/mL
MRT ([1]; iv, 3 mg/kg): 1.11 ± 0.08 h
Tmax ([1]; iv, 3 mg/kg): 0.03 h
clearance ([1]; iv, 3 mg/kg): 155 mL/min/kg
half-life ([1]; iv, 3 mg/kg): 1.22 ± 0.1 h
Vd [1, 2]: 10.3 ± 0.86 L/kg
Vd [1, 3]: 16.3 ± 2.48 L/kg
bioavailability [1]: 60.3%
Cmax ([1]; po (intragastric), 10 mg/kg): 58.1 ± 7.09 ng/mL
MRT ([1]; po (intragastric), 10 mg/kg): 3.47 ± 1.22 h
Tmax ([1]; po (intragastric), 10 mg/kg): 1.67 ± 0.29 h
half-life ([1]; po (intragastric), 10 mg/kg): 1.57 ± 0.39 h
AUClast ([1]; iv, 3 mg/kg): 317.5 ± 34.41 (h) (ng/mL)
AUClast ([1]; po (intragastric), 10 mg/kg): 637.9 ± 302.3 (h) (ng/mL)

C=CCn1c(=O)c2cnc(Nc3ccc(C4CCC(C(=O)NC5CC5)CC4)cc3)nc2n1-c1cccc(C(C)(C)O)n1 (stereo not shown) [Compound I-17]
IC50 (WEE1 kinase): 4.05 nM

C=CCn1c(=O)c2cnc(Nc3ccc(C4CCC(NS(C)(=O)=O)CC4)cc3)nc2n1-c1cccc(C(C)(C)O)n1 (stereo not shown) [Compound I-19, N-(4-(4-((2-allyl-1-(6-(2-hydroxypropan-2-yl)pyridin-2-yl)-3-oxo-2,3-dihydro-1H-pyrazolo[3,4-d]pyrimidin-6-yl)amino)phenyl)cyclohexyl)methanesulfonamide]
IC50 (WEE1 kinase): 3.89 nM

C=CCn1c(=O)c2cnc(Nc3ccc(C4CCC(NC(=N)N)CC4)cc3)nc2n1-c1cccc(C(C)(C)O)n1 (stereo not shown) [Compound I-20]
IC50 (WEE1 kinase): 3.45 nM

C=CCn1c(=O)c2cnc(Nc3ccc(C4CCC(C#N)CC4)cc3)nc2n1-c1cccc(C(C)(C)O)n1 (stereo not shown) [Compound I-23]
IC50 (WEE1 kinase): 0.71 nM

C=CCn1c(=O)c2cnc(Nc3ccc(C4CC(N(C)C)C4)cc3)nc2n1-c1cccc(C(C)(C)O)n1 (stereo not shown) [Compound I-31, 2-allyl-6-((4-(3-(dimethylamino)cyclobutyl)phenyl)amino)-1-(6-(2-hydroxypropan-2-yl)pyridin-2-yl)-1,2-dihydro-3H-pyrazolo[3,4-d]pyrimidin-3-one]
IC50 (WEE1 kinase): 2.05 nM

C=CCn1c(=O)c2cnc(Nc3ccc(C4CCC(=NOC)CC4)cc3)nc2n1-c1cccc(C(C)(C)O)n1 (stereo not shown) [Compound I-32]
IC50 (WEE1 kinase): 7.39 nM

C=CCn1c(=O)c2cnc(Nc3ccc(C4CCC(NC)CC4)cc3)nc2n1-c1cccc(C2(O)COC2)n1 (stereo not shown) [Compound I-33]
IC50 (WEE1 kinase): 4.22 nM

C=CCn1c(=O)c2cnc(Nc3ccc(C4CCC(N(C)C(=O)C5CC5)CC4)cc3)nc2n1-c1cccc(C2(O)COC2)n1 (stereo not shown) [Compound I-34]
IC50 (WEE1 kinase): 3.3 nM

C=CCn1c(=O)c2cnc(Nc3ccc(C4CCC(N5CCOC5=O)CC4)cc3)nc2n1-c1cccc(C2(O)COC2)n1 (stereo not shown) [Compound I-37]
IC50 (WEE1 kinase): 1.99 nM

C=CCn1c(=O)c2cnc(Nc3ccc(C4CCC(C#N)CC4)cc3)nc2n1-c1cccc(C2(O)COC2)n1 (stereo not shown) [Compound I-38]
IC50 (WEE1 kinase): 1.68 nM

C=CCn1c(=O)c2cnc(Nc3ccc(C4CCC(C(=O)OCC)CC4)cc3)nc2n1-c1cccc(C2(O)COC2)n1 (stereo not shown) [Compound I-39]
IC50 (WEE1 kinase): 2.08 nM

C=CCn1c(=O)c2cnc(Nc3ccc(C4CCC(C(=O)O)CC4)cc3)nc2n1-c1cccc(C2(O)COC2)n1 (stereo not shown) [Compound I-40]
IC50 (WEE1 kinase): 4.58 nM

C=CCn1c(=O)c2cnc(Nc3ccc4c(c3)CCC(N(C)C)C4)nc2n1-c1cccc(C(C)(C)O)n1 (stereo not shown) [Control 2, reference compound]
IC50 (WEE1 kinase): 1.98 nM
Cmax ([1]; iv, 3 mg/kg): 646 ± 76.8 ng/mL
MRT ([1]; iv, 3 mg/kg): 0.86 ± 0.16 h
Tmax ([1]; iv, 3 mg/kg): 0.03 h
clearance ([1]; iv, 3 mg/kg): 188 mL/min/kg
half-life ([1]; iv, 3 mg/kg): 1.37 ± 0.33 h
Vd [1, 2]: 9.69 ± 0.96 L/kg
Vd [1, 3]: 22.2 ± 3.29 L/kg
bioavailability [1]: 9.19%
Cmax ([1]; po (intragastric), 10 mg/kg): 27.8 ± 4.76 ng/mL
MRT ([1]; po (intragastric), 10 mg/kg): 3.78 ± 1.56 h
Tmax ([1]; po (intragastric), 10 mg/kg): 1.67 ± 2.02 h
half-life ([1]; po (intragastric), 10 mg/kg): 2.51 ± 1.85 h
AUClast ([1]; iv, 3 mg/kg): 261.52 ± 26.93 (h) (ng/mL)
AUClast ([1]; po (intragastric), 10 mg/kg): 80.15 ± 9.62 (h) (ng/mL)
